Measurements from ChEMBL document CHEMBL5370528, “Synthesis-accessibility-oriented design of c-Jun N-terminal kinase 1 inhibitor” (Eur J Med Chem, 2023).
Calls of active or inactive are those of the source. The calls are words filed in the database; no cut-off is given here.

Assays:
Mus musculus [1] = experiment: Anti-fibrotic activity in bleomycin-induced C57BL/6 mouse model of pulmonary fibrosis assessed as restoration of respiratory function at 75 mg/kg, po administered twice a day for 3 weeks by spirometry analysis; format: functional
[2] = target: Mitogen-activated protein kinase 10 (Homo sapiens, UniProt P53779); experiment: Inhibition of N-terminal GST-tagged recombinant full length human JNK3 expressed in baculovirus infected Sf9 cells using IPTTPITTTYFFFKKK as substrate incubated for 60 mins in the presence of ATP by ADP-Glo reagent based luminescence assay
[3] = Tmax in Sprague-Dawley rat at 75 mg/kg, po by HPLC-UV analysis; format: ADME, organism-based; details: in vivo
[4] = Oral bioavailability in Sprague-Dawley rat at 75 mg/kg by HPLC-UV analysis; format: ADME, organism-based; details: in vivo
Mus musculus [5] = experiment: Anti-fibrotic activity in bleomycin-induced C57BL/6 mouse model of pulmonary fibrosis assessed as alleviation of alveolar wall thickening in lungs at 25 to 75 mg/kg, po administered twice a day for 3 weeks by H&E staining based analysis; format: functional, organism-based; details: dose 25-75 mg/kg

Sequence of Mitogen-activated protein kinase 10 (P53779 whole entry): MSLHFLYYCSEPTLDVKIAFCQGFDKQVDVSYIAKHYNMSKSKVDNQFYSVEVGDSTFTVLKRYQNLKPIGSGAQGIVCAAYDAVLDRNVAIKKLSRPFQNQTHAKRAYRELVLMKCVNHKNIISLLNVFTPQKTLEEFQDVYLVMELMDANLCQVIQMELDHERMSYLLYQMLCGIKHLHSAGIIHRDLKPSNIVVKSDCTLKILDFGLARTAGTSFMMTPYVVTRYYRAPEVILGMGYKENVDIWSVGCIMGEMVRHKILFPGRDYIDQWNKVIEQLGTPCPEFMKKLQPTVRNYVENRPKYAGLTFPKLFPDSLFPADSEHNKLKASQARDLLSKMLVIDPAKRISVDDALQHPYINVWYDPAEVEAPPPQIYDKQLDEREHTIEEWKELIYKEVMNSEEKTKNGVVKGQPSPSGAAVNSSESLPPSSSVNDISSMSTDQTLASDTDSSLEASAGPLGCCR

Work on `CC(C)(C)CNc1ncc(Br)c(Nc2ccccc2C(N)=O)n1` yielded an Activity (Mus musculus [1]) of about 100%, an IC50 [2] of 0.0332 µM and a Tmax [3] of 1.38 h. The bioavailability [4] was 15.3% and the Activity (Mus musculus [5]) was “Active”.
